pEC50: −log10 of the molar value.
Key:
[1] = target: human purified sGC (heterodimer of sGCα1 and sGCβ1) (Homo sapiens (Human), UniProt Q02108+Q02153); assay: sGC activation test (cGMP produced, HTRF); type: biochemical; settings: maximum activity of Preparation Example 200 compound (maximum 100 μM) taken as 100%; with SNP; read-out: EC50 (concentration giving 50% of maximum activity)
Summary of the method: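 Human N-FLAG-sGCα1/sGCβ1 heterodimer was expressed in Sf9 cells via baculovirus and affinity-purified. Enzyme was incubated with compound, GTP, MgCl2, DTT and sodium nitroprusside in triethanolamine buffer for 1 h at room temperature, and cGMP was quantified by HTRF. EC50 is the concentration giving 50% of maximal activity set by a reference imidazopyridine activator (100%).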

[2] = tested on: hind limb blood flow in rats anesthetized with pentobarbital; assay: Blood flow increasing action in vivo (hind limb blood flow, anesthetized rats); set-up: species or system Wistar male rats; settings: oral, 2 hours after administration, effective when blood flow rate 130% or more of solvent group
Method: The hind limb blood flow increasing action in rats anesthetized with pentobarbital was confirmed by the following test method.
Wistar male rats, 11- to 14-week (Japan SLC, Inc.) were used. An administration liquid was prepared by adding N,N-dimethyl formamide, Polyethylene Glycol 400, TWEEN 80, a 0.5% methyl cellulose aqueous solution, a 0.5 M aqueous sodium hydrogen carbonate solution, and 0.1 M hydrochloric acid to the test compound and dissolving the Example compound in an appropriate manner depending on the compound. The prepared administration liquid was orally administered, and 2 hours later, the hind limb blood flow increasing action was evaluated under anesthesia with intraperitoneally administration of 60 mg/kg of pentobarbital The hind limb blood flow was measured using a laser blood flow imaging device (PIM II Integral). By taking the average blood flow rate of a group with the administration of a solvent as 100%, the compound was evaluated to be effective when the blood flow rate was 130% or more by the administration of the compound.

[3] = tested on: average blood pressure of rats; assay: Measurement of antihypertensive effect in vivo; set-up: species or system Wistar male rats; settings: oral
Method: As the animals, Wistar male rats, 13- to 18-week (Japan SLC, Inc.) were used. Three days prior to administration of a test compound, a cannula (PE-50, Becton, Dickinson and Company, Japan) filled with heparin physiological saline (200 U/mL, Ajinomoto Pharmaceuticals Co., Ltd.) was inserted and placed in the common carotid artery under anesthesia with intraperitoneal administration of 60 mg/kg of pentobarbital. The other end of the cannula was subcutaneously exposed to the back of the neck. After the recovery period, the placed cannula was connected to a pressure transducer (Life Kit DTS DX-100, Nihon Kohden Corporation) to record the blood pressure waveform through an amplifier (AP-641G, Nihon Kohden Co., Ltd.) and PowerLab (ML870 PowerLab8/30 (AD Instruments Japan)). The heart rate was calculated using a heart rate measuring unit (AT-601G, Nihon Kohden Co., Ltd.). After stabilization of the blood pressure, the test compound was orally administered one time to measure the blood pressure and the heart rate over time. The test compounds were administered by appropriately adding N,N-dimethylformamide, Polyethylene Glycol 400, TWEEN 80, a 0.5% aqueous methylcellulose solution, and a 0.5 M aqueous sodium hydrogen carbonate solution, and 0.1 M hydrochloric acid therein according to the compounds and dissolving it.
Further, the administration doses in Tables represent the administration doses for oral administration, and for example, 3 means 3 mg/kg. Further, the blood pressure reduction represents a maximum change value from the value before administration in the average blood pressure, and for example, −63 indicates reduction by 63 mmHg.

Sequence of human purified sGC (heterodimer of sGCα1 and sGCβ1) (Q02108 whole entry): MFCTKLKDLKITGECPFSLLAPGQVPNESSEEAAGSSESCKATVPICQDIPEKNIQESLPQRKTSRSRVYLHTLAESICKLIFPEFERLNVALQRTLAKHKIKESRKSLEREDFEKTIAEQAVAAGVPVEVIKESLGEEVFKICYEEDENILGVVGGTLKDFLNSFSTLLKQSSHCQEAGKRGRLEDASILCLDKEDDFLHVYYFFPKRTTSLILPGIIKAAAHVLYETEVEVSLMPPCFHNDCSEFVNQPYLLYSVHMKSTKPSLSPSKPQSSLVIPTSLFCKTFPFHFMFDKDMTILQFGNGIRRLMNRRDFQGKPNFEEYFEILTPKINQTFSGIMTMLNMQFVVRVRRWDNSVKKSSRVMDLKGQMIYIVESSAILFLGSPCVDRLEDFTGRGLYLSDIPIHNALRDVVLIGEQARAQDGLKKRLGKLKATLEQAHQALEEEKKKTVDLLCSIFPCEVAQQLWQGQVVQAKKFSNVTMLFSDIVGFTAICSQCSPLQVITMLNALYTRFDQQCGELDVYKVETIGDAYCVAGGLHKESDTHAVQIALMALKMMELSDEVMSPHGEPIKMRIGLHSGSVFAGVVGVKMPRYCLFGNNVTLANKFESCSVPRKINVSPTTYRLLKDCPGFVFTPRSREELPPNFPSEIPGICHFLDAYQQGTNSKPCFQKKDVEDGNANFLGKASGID
Sequence of human purified sGC (heterodimer of sGCα1 and sGCβ1) (Q02153 whole entry): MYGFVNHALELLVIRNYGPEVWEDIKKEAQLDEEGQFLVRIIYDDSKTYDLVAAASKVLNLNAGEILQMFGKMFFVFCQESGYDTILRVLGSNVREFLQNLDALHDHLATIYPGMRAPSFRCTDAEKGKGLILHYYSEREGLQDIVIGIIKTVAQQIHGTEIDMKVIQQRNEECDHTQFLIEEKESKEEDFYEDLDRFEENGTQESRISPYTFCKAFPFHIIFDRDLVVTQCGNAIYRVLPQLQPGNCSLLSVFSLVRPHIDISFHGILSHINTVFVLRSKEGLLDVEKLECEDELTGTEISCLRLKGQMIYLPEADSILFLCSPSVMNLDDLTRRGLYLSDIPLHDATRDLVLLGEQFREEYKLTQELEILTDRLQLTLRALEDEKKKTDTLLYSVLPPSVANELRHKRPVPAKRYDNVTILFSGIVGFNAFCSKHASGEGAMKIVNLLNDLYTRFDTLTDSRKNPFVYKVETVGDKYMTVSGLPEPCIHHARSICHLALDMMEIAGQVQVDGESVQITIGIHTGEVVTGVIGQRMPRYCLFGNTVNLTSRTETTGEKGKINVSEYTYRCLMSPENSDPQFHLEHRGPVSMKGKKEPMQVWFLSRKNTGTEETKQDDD

In the case of `Cc1nc2c(OCc3c(F)cccc3F)cccn2c1C(=O)N[C@@](C)(CO)c1ccccc1` [Example 9], the pEC50 [1] was 6.14, the “hind limb blood flow increasing action” value ([2]; 0.3 mg/kg) was “exhibited a blood flow increasing action” and the “Blood pressure reduction (maximum change from value before administration in average blood pressure)” value ([3]; single dose 3 mg/kg) was −63 mmHg.
With `Cc1nc2c(OCc3c(F)cccc3F)cccn2c1C(=O)NC(CO)(CO)c1ccc(F)cc1` [Example 54] the pEC50 [1] was 5.57, the “hind limb blood flow increasing action” value ([2]; 3 mg/kg) was “exhibited a blood flow increasing action” and the “Blood pressure reduction (maximum change from value before administration in average blood pressure)” value ([3]; single dose 3 mg/kg) was −56 mmHg.
With `Cc1nc2c(OCc3c(F)cccc3F)cccn2c1C(=O)NC(CO)(CO)c1nnn(C(F)F)n1` [Example 96] the pEC50 [1] was 5.47, the “hind limb blood flow increasing action” value ([2]; 0.3 mg/kg) was “exhibited a blood flow increasing action” and the “Blood pressure reduction (maximum change from value before administration in average blood pressure)” value ([3]; single dose 1 mg/kg) was −21 mmHg.
With `Cc1nc2c(OCc3c(F)cccc3F)cccn2c1C(=O)N[C@@](C)(CO)c1nnn(C(F)F)n1` [Example 114, 8-[(2,6-difluorobenzyl)oxy]-N-{(2R)-2-[2-(difluoromethyl)-2H-tetrazol-5-yl]-1-hydroxypropan-2-yl}-2-methylimidazo[1,2-a]pyridine-3-carboxamide] the pEC50 [1] was 6.14, the “hind limb blood flow increasing action” value ([2]; 0.03 mg/kg) was “exhibited a blood flow increasing action” and the “Blood pressure reduction (maximum change from value before administration in average blood pressure)” value ([3]; single dose 0.3 mg/kg) was −35 mmHg.
In the case of `Cc1nnc([C@](C)(CO)NC(=O)c2c(C)nc3c(OCc4c(F)cccc4F)cccn23)o1` [Example 117, 8-[(2,6-difluorobenzyl)oxy]-N-[(2S)-1-hydroxy-2-(5-methyl-1,3,4-oxadiazol-2-yl)propan-2-yl]-2-methylimidazo[1,2-a]pyridine-3-carboxamide], the pEC50 [1] was 5.26, the “hind limb blood flow increasing action” value ([2]; 0.1 mg/kg) was “exhibited a blood flow increasing action” and the “Blood pressure reduction (maximum change from value before administration in average blood pressure)” value ([3]; single dose 1 mg/kg) was −35 mmHg.
For `Cc1nnc([C@](C)(CO)NC(=O)c2c(C)nc3c(OCc4c(F)cccc4F)cccn23)s1` [Example 118, 8-[(2,6-difluorobenzyl)oxy]-N-[(2S)-1-hydroxy-2-(5-methyl-1,3,4-thiadiazol-2-yl)propan-2-yl]-2-methylimidazo[1,2-a]pyridine-3-carboxamide], the pEC50 [1] was 5.96, the “hind limb blood flow increasing action” value ([2]; 1 mg/kg) was “exhibited a blood flow increasing action” and the “Blood pressure reduction (maximum change from value before administration in average blood pressure)” value ([3]; single dose 3 mg/kg) was −61 mmHg.
